In BigSolDB 2.1:

O=C1C=CC(=O)N1c1cc(F)c(Br)c(F)c1
Details	solubility (mole fraction)
in THF, 285 K	0.0148
in THF, 288.45 K	0.0162
in THF, 291.55 K	0.0176
in THF, 294.25 K	0.0185
in THF, 297.55 K	0.02
in THF, 302.8 K	0.0228
in THF, 306.65 K	0.0249
in THF, 310.8 K	0.0275
in THF, 315 K	0.0303
in THF, 318.45 K	0.0329
in THF, 321.45 K	0.0355
in THF, 324.65 K	0.0383
in THF, 327.65 K	0.0409
in THF, 330.35 K	0.0437
in THF, 333.65 K	0.047
in THF, 336.25 K	0.0497
in acetone, 287.65 K	0.0071
in acetone, 291.85 K	0.0081
in acetone, 295.55 K	0.0092
in acetone, 298.35 K	0.01
in acetone, 301.25 K	0.0109
in acetone, 304.55 K	0.012
in acetone, 307.6 K	0.0131
in acetone, 309.45 K	0.0139
in acetone, 311.95 K	0.0152
in acetone, 313.95 K	0.0159
in acetone, 316.55 K	0.0174
in acetone, 319.55 K	0.019
in acetone, 321.45 K	0.0202
in acetone, 323.35 K	0.0214
in acetone, 325.15 K	0.0225
in acetonitrile, 291.95 K	0.0028
in acetonitrile, 296.65 K	0.0033
in acetonitrile, 299.25 K	0.0037
in acetonitrile, 302.45 K	0.004
in acetonitrile, 304.85 K	0.0044
in acetonitrile, 307.15 K	0.0049
in acetonitrile, 311.55 K	0.0057
in acetonitrile, 316.95 K	0.007
in acetonitrile, 320.15 K	0.0078
in acetonitrile, 325.45 K	0.0095
in acetonitrile, 328.55 K	0.0107
in acetonitrile, 332.05 K	0.0119
in acetonitrile, 338.65 K	0.0146
in acetonitrile, 341.65 K	0.0165
in acetonitrile, 347.25 K	0.0198
in acetonitrile, 350.15 K	0.0217
in chloroform, 289.25 K	0.0055
in chloroform, 294.85 K	0.0066
in chloroform, 296.65 K	0.0069
in chloroform, 300.85 K	0.0078
in chloroform, 302.75 K	0.0082
in chloroform, 305.65 K	0.0092
in chloroform, 307.45 K	0.0096
in chloroform, 309.55 K	0.0101
in chloroform, 311.65 K	0.0108
in chloroform, 315.35 K	0.012
in chloroform, 318.65 K	0.0132
in chloroform, 322.15 K	0.0146
in chloroform, 324.65 K	0.0157
in chloroform, 326.45 K	0.0166
in chloroform, 328.35 K	0.0176
in chloroform, 330.65 K	0.0188
in ethanol, 288.65 K	0.0003
in ethanol, 293.59 K	0.0003
in ethanol, 299.85 K	0.0004
in ethanol, 305.72 K	0.0006
in ethanol, 311.15 K	0.0008
in ethanol, 318.15 K	0.0011
in ethanol, 324.35 K	0.0014
in ethanol, 327.85 K	0.0016
in ethanol, 332.95 K	0.002
in ethanol, 336.05 K	0.0023
in ethanol, 339.65 K	0.0027
in ethanol, 341.85 K	0.003
in ethanol, 344.15 K	0.0033
in ethanol, 346.15 K	0.0036
in ethanol, 347.75 K	0.0039
in pyridine, 285.55 K	0.0116
in pyridine, 289.66 K	0.0129
in pyridine, 293.95 K	0.0144
in pyridine, 297.15 K	0.0154
in pyridine, 300.85 K	0.0169
in pyridine, 304.65 K	0.0186
in pyridine, 310.05 K	0.0214
in pyridine, 315.65 K	0.0246
in pyridine, 318.65 K	0.0265
in pyridine, 322.55 K	0.0291
in pyridine, 328.45 K	0.0341
in pyridine, 334.15 K	0.0394
in pyridine, 337.95 K	0.0432
in pyridine, 340.65 K	0.0462
in pyridine, 344.85 K	0.0514
in pyridine, 346.35 K	0.0533
